Reference: PMC7083565, “In vitro metabolism, reaction phenotyping, enzyme kinetics, CYP inhibition and induction potential of ataluren” (Pharmacology Research & Perspectives, 2020)

Key:
[1] = Glucuronidation in pooled human lung microsomes; assay type: in vitro ADME; settings: lung microsomes 1 mg protein/mL, 10 μmol/L
Experimental: Ataluren at 10 μmol/L, was incubated (n = 1) with pooled human intestinal, lung, and kidney microsomes (1 mg protein/mL, preactivated with alamethicin) to evaluate if ataluren‐O‐1β‐acyl glucuronide will be formed in these extrahepatic tissues. Incubation mixtures and procedures were essentially the same as the above. The supernatant fractions were analyzed by LC‐MS/MS to quantify the formation of ataluren‐O‐1β‐acyl glucuronide and the loss of ataluren. Detailed LC‐MS/MS conditions are summarized in LC‐MS/MS Analysis section. […] The ataluren acyl glucuronide formation rate after 60 minutes incubation was calculated using the amount of metabolite formed (pmol) divided by the protein amount in the incubation sample ([…]) and the incubation time (60 minutes).
Quantification of ataluren loss and ataluren‐O‐1β‐acyl glucuronide formation was carried out with an LC‐MS/MS system, which consisted of two Shimadzu LC‐10ADvp pumps, a SPD10‐AVP UV/Vis detector, a Shimadzu SILHTA autosampler, a Shimadzu DGU‐14A degasser, and a Sciex API 4000 QTRAP mass spectrometer equipped with a Turbo Ionspray ionization source that operated in positive ionization mode. […] Ion transitions monitored were at m/z 285 → m/z 123 for ataluren, m/z 461 → m/z 285 for ataluren acyl glucuronide, and m/z 289 → m/z 127 for ataluren‐D4 (internal standard), respectively.

[2] = target: T1, CYP2C8 (Homo sapiens, UniProt P10632); assay: CYP inhibition in pooled human liver microsomes: CYP2C8; assay type: in vitro ADME
T1 construct: tissue XenoTech LLC, Celsis-In Vitro Technologies, or Tissue Transformation Technologies; host or cells: pooled human liver microsomes
T1 sequence (P10632 1-490): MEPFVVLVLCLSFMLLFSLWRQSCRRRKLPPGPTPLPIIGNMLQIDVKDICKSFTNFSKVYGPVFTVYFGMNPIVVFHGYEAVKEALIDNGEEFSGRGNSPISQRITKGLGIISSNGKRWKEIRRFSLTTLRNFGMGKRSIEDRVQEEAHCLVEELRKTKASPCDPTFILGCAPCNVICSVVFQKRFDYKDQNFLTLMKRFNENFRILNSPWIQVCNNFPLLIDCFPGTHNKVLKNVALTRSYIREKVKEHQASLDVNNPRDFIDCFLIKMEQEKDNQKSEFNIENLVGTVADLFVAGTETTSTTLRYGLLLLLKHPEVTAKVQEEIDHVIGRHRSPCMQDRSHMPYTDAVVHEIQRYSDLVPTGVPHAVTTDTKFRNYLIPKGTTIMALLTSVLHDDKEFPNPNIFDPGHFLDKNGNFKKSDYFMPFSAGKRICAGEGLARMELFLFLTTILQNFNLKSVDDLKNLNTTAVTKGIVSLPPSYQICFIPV
Experimental: (§1) The final concentration of each probe substrate was near the experimentally determined Km value for the indicated enzyme. Ataluren or prototypical CYP inhibitors (positive controls) was incubated (n = 3) with probe substrates and HLM in 100 mmol/L phosphate buffer (pH 7.4) in a total volume of approximately 0.25 mL, and the reactions were initiated by the addition of 1 mmol/L NADPH at 37°C. The reactions were carried out using previously established conditions to ensure linearity with respect to protein concentration and incubation time (Table S1). Incubations were stopped with the addition of ice‐cold acetonitrile. Metabolite formation in incubations with test compound and control inhibitors was assessed with LC‐MS/MS methods for each of the reaction products as described in Table S2. […] After 7 minutes incubation at 37°C, the reaction was stopped by the addition of ice‐cold acetonitrile, followed by membrane plate filtration. The filtrates were used for LC‐MS/MS analysis. Enzyme activity remaining at each nonzero ataluren concentration after incubation was normalized against control sample (zero ataluren concentration, enzyme activity = 100%), and the % remaining enzyme activity values were used for IC50 calculation. IC50 values were determined by nonlinear regression with GraphPad Prism 5 using the following four‐parameter sigmoidal‐logistic IC50 equation: Fit=background+range-background/[1+I/IC50^slope]
(§2) Where, I is the inhibitor concentration, and background was set to 0 and range to 100, as percent of control values are utilized. K i was determined by nonlinear regression with GraphPad Prism 5 using best fit model.

[3] = target: T2, CYP2C19 (Homo sapiens, UniProt P33261); assay: CYP inhibition in pooled human liver microsomes: CYP2C19; assay type: in vitro ADME; settings: CYP2C19, HLM, estimated, concentrations up to 400 μmol/L
T2 construct: tissue XenoTech LLC, Celsis-In Vitro Technologies, or Tissue Transformation Technologies; host or cells: pooled human liver microsomes
Experimental: as §1, with “Enzyme activity remaining at each nonzero ataluren concentration after incubation was normalized against control sample (zero ataluren concentration, enzyme activity = 100%), and the % remaining enzyme activity values were used for IC50 calculation.” left out
as §2

[4] = DMD patients, oral 10, 10, 20 mg/kg/day (morning, mid-day and evening dose); read-out: mean Cmax at the steady state; cited from earlier work

T2 sequence (P33261 whole entry): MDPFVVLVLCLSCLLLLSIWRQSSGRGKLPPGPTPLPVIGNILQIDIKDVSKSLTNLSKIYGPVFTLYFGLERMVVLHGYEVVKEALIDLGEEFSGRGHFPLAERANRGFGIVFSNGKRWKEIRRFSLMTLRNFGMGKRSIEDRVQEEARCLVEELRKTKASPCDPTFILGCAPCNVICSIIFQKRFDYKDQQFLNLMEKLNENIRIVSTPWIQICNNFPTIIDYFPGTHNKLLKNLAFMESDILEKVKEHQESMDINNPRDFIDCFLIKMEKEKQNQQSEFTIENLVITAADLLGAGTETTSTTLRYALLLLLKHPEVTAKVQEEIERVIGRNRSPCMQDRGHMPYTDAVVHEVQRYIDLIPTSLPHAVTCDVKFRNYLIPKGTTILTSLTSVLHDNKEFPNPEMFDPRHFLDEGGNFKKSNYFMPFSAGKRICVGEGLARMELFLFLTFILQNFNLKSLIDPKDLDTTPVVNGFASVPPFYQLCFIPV

O=C(O)c1cccc(-c2noc(-c3ccccc3F)n2)c1 [ataluren, Ataluren]
Glucuronidation of ataluren observed [1]: not in lung microsomes | IC50 ([2]; Amodiaquine N-deethylase, pooled HLM, n=3, (95% confidence interval)): 163 µM | mechanism of inhibition ([2]; CYP2C8, amodiaquine N-deethylase): noncompetitive inhibitor | Ki ([2]; CYP2C8, noncompetitive, mean ± SE, n = 3): 169 ± 6.19 µM | IC50 ([2]; human, pooled human liver microsomes, pH 7.4, CYP2C8, HLM): 165 µM | IC50 [3]: > 400 µM | Cmax [4]: ~79.9 µM
